From patent publication US20260355196A1, “INHIBITORS AND DEGRADERS OF PIP4K PROTEIN” (Larkspur Biosciences, Inc., priority 2023, published 2026)

Target: T1, PIP4K2C (Homo sapiens, UniProt Q8TBX8)
T1 sequence (Q8TBX8 1-421): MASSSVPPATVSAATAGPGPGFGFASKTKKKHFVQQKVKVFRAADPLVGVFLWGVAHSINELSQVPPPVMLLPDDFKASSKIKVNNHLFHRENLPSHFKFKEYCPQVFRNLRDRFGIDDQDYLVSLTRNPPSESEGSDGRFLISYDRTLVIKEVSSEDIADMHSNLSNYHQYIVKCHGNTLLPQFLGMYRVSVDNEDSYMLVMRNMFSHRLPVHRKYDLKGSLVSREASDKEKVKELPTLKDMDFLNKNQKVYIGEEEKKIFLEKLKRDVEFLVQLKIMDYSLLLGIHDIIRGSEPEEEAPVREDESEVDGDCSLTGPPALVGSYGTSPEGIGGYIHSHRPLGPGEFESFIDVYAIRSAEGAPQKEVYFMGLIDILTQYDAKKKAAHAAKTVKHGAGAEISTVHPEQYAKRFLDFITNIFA
Assay: HiBiT PIP4K2C degradation assay in MOLT-4 cells (endogenous PIP4K2C C-terminally tagged with HiBiT)
Format: cell-based
Design: untagged in primary human PBMCs and monocyte-derived dendritic cells
Conditions: 6 hours of incubation time, rather than 24 hours; MOLT-4, top concentration 10 micromolar; read-out: HiBIT-degradation MOLT4 PIP4k2C DC50 (6 hours, marked *)
Source text: Example B-2: HiBiT PIP4K2C degradation assay
Materials: MOLT-4, a human T lymphoblast cell line (see https://www.atcc.org/products/crl-1582, herein incorporated by reference in its entirety), was genetically engineered using CRISPR-Cas9 by Synthego Corporation (Redwood City, CA) to C-terminally tag endogenous PIP4K2C with HiBiT peptide. Following clonal selection, genotype was confirmed by Sanger sequencing. MO LT-4 were maintained using RPMI-1640 medium from Gibco (Grand Island, NY, catalog number 11875-085) supplemented with 10% fetal bovine serum (FBS) from VWR (Philadelphia, PA, catalog number 97068-085). For HiBiT assays the cells were resuspended in RPMI-1640 medium without phenol read from Gibco (Grand Island, NY, catalog number 11835-030) supplemented with 10% FBS. Nano-Glo® HiBiT Lytic Assay System was purchased from Promega (Madison, WI, Catalog number N3030). Cell culture flasks and 384-well microplates were purchased from Corning (Glendale, AZ).
To study PIP4K2C degradation, 384-well plates were plated with a 10-point dose response curve, 3-fold dilution, in duplicate with a top starting concentration of 10 micromolar. Subsequently 22,500 cells were added to each well and incubated at 37 C in 5% C02 for 24 hours or 6 hours. At the end of the incubation time, cells were treated with the Nano-Glo® HiBiT Lytic Detection System following the manufacturer's instructions. Luminescence was measured with a PHERAstar FSX plate reader (BMG Labtech, Cary, NC). The Levenberg-Marquardt algorithm was used to fit a Hill equation to dose-response data to calculate DC50 values (see Table 6).

DC50 [nM] | SMILES
< 500 | O=C1CCC(n2c(=O)oc3cc(N4CCC(CCN5CCN(C(=O)[C@@H]6CCC[C@H](Nc7ncc(F)c(-c8cccc(-n9ccccc9=O)c8)n7)C6)CC5)CC4)ccc32)C(=O)N1 (relative stereo) [Compound 386, 3-(6-(4-(2-(4-(cis-3-((5-fluoro-4-(3-(2-oxopyridin-1(2H)-yl)phenyl)pyrimidin-2-yl)amino)cyclohexane-1-carbonyl)piperazin-1-yl)ethyl)piperidin-1-yl)-2-oxobenzo[d]oxazol-3 (2H)-yl)piperidine-2,6-dione]
< 500 | O=C1CC[C@@H](Nc2ccc(C3CCN([C@H]4CC[C@H](NC(=O)[C@H]5CC[C@H](Nc6ncc(F)c(-c7cccc(-n8ccccc8=O)c7)n6)CC5)CC4)CC3)c(F)c2)C(=O)N1 (single isomer, unassigned) [Compound 418]

Same assay, conditions: 24 hours incubation, MOLT-4, top concentration 10 micromolar; read-out: HiBIT-degradation MOLT4 PIP4k2C 24 hours DC50

DC50 [nM] | SMILES
< 500 | O=C1CCC(Nc2ccc(N3CCC(CN4CCC(NC(=O)[C@H]5CCC[C@@H](Nc6ncc(F)c(-c7cccc(-n8ccccc8=O)c7)n6)C5)CC4)CC3)c(F)c2)C(=O)N1 (relative stereo) [Compound 336, cis-N-(1-((1-(4-((2,6-dioxopiperidin-3-yl)amino)-2-fluorophenyl)piperidin-4-yl)methyl)piperidin-4-yl)-3-((5-fluoro-4-(3-(2-oxopyridin-1(2H)-yl)phenyl)pyrimidin-2-yl)amino)cyclohexane-1-carboxamide]
< 500 | O=C1CCC(Nc2ccc(C3CCN([C@H]4CC[C@@H](CNC(=O)[C@H]5CCC[C@@H](Nc6ncc(F)c(-c7cccc(-n8ccccc8=O)c7)n6)C5)CC4)CC3)c(F)c2)C(=O)N1 (relative stereo) [Compound 337, cis-N-((cis-4-(4-(4-((2,6-dioxopiperidin-3-yl)amino)-2-fluorophenyl)piperidin-1-yl)cyclohexyl)methyl)-3-((5-fluoro-4-(3-(2-oxopyridin-1(2H)-yl)phenyl)pyrimidin-2-yl)amino)cyclohexane-1-carboxamide]
< 500 | Cn1c(=O)n(C2CCC(=O)NC2=O)c2ccc(C3CCN(CC[C@H]4CC[C@H](C(=O)N5CCC(Nc6ncc(Cl)c(-c7cccc(-c8ccc(F)cc8)c7)n6)CC5)CC4)CC3)cc21 (relative stereo) [Compound 338, trans-3-(5-(1-(2-(4-(4-((5-chloro-4-(4′-fluoro-[1,1′-biphenyl]-3-yl)pyrimidin-2-yl)amino)piperidine-1-carbonyl)cyclohexyl)ethyl)piperidin-4-yl)-3-methyl-2-oxo-2,3-dihydro-1H-benzo[d]imidazol-1-yl)piperidine-2,6-dione]
< 500 | O=C1CCC(n2c(=O)oc3cc(C4CCN(CCC5(O)CCN(C(=O)[C@H]6CCC[C@@H](Nc7ncc(F)c(-c8cccc(-n9ccccc9=O)c8)n7)C6)CC5)CC4)ccc32)C(=O)N1 (relative stereo) [Compound 347, cis-3-(6-(1-(2-(1-(3-((5-fluoro-4-(3-(2-oxopyridin-1(2H)-yl)phenyl)pyrimidin-2-yl)amino)cyclohexane-1-carbonyl)-4-hydroxypiperidin-4-yl)ethyl)piperidin-4-yl)-2-oxobenzo[d]oxazol-3 (2H)-yl)piperidine-2,6-dione]
< 500 | O=C1CCC(n2c(=O)oc3cc(C4CCN([C@H]5CC[C@H](CNC(=O)[C@H]6CCC[C@@H](Nc7ncc(F)c(-c8cccc(-n9ccccc9=O)c8)n7)C6)CC5)CC4)ccc32)C(=O)N1 (relative stereo) [Compound 349, cis-trans-N-((4-(4-(3-(2,6-dioxopiperidin-3-yl)-2-oxo-2,3-dihydrobenzo[d]oxazol-6-yl)piperidin-1-yl)cyclohexyl)methyl)-3-((5-fluoro-4-(3-(2-oxopyridin-1(2H)-yl)phenyl)pyrimidin-2-yl)amino)cyclohexane-1-carboxamide]
< 500 | O=C1CCC(Nc2ccc(N3CCC(N4CCC(CNC(=O)[C@H]5CCC[C@@H](Nc6ncc(F)c(-c7cccc(-n8ccccc8=O)c7)n6)C5)CC4)CC3)c(F)c2)C(=O)N1 (relative stereo) [Compound 361, cis-N-((1′-(4-((2,6-dioxopiperidin-3-yl)amino)-2-fluorophenyl)-[1,4′-bipiperidin]-4-yl)methyl)-3-((5-fluoro-4-(3-(2-oxopyridin-1(2H)-yl)phenyl)pyrimidin-2-yl)amino)cyclohexane-1-carboxamide]

Continued, compound first:

SMILES | DC50 [nM]
O=C1CCC(n2c(=O)oc3cc(N4CCC(CN5CCC(NC(=O)[C@H]6CCC[C@@H](Nc7ncc(F)c(-c8cccc(-n9ccccc9=O)c8)n7)C6)CC5)CC4)ccc32)C(=O)N1 (relative stereo) [Compound 320, cis-N-(1-((1-(3-(2,6-dioxopiperidin-3-yl)-2-oxo-2,3-dihydrobenzo[d]oxazol-6-yl)piperidin-4-yl)methyl)piperidin-4-yl)-3-((5-fluoro-4-(3-(2-oxopyridin-1(2H)-yl)phenyl)pyrimidin-2-yl)amino)cyclohexane-1-carboxamide] | < 500
Cn1nc(C2CCC(=O)NC2=O)c2ccc(N3CCC(CN4CCC(NC(=O)[C@H]5CCC[C@@H](Nc6ncc(F)c(-c7cccc(-n8ccccc8=O)c7)n6)C5)CC4)CC3)cc21 (relative stereo) [Compound 332, cis-N-(1-((1-(3-(2,6-dioxopiperidin-3-yl)-1-methyl-1H-indazol-6-yl)piperidin-4-yl)methyl)piperidin-4-yl)-3-((5-fluoro-4-(3-(2-oxopyridin-1(2H)-yl)phenyl)pyrimidin-2-yl)amino)cyclohexane-1-carboxamide] | < 500
Cn1nc(C2CCC(=O)NC2=O)c2ccc(N3CCC(N4CCC(CNC(=O)[C@H]5CCC[C@@H](Nc6ncc(F)c(-c7cccc(-n8ccccc8=O)c7)n6)C5)CC4)CC3)cc21 (relative stereo) [Compound 333, cis-N-((1′-(3-(2,6-dioxopiperidin-3-yl)-1-methyl-1H-indazol-6-yl)-[1,4′-bipiperidin]-4-yl)methyl)-3-((5-fluoro-4-(3-(2-oxopyridin-1(2H)-yl)phenyl)pyrimidin-2-yl)amino)cyclohexane-1-carboxamide] | < 500
O=C1CCC(n2c(=O)oc3cc(N4CCN(CCC5CCN(C(=O)[C@@H]6CCC[C@H](Nc7ncc(F)c(-c8cccc(-n9ccccc9=O)c8)n7)C6)CC5)CC4)ccc32)C(=O)N1 (relative stereo) [Compound 342, cis-3-(6-(4-(2-(1-(3-((5-fluoro-4-(3-(2-oxopyridin-1(2H)-yl)phenyl)pyrimidin-2-yl)amino)cyclohexane-1-carbonyl)piperidin-4-yl)ethyl)piperazin-1-yl)-2-oxobenzo[d]oxazol-3 (2H)-yl)piperidine-2,6-dione] | < 500
O=C1CCC(Nc2ccc(C3CCN(CCC4(O)CCN(C(=O)[C@H]5CCC[C@@H](Nc6ncc(F)c(-c7cccc(-n8ccccc8=O)c7)n6)C5)CC4)CC3)c(F)c2)C(=O)N1 (relative stereo) [Compound 348, cis-3-((3-fluoro-4-(1-(2-(1-(3-((5-fluoro-4-(3-(2-oxopyridin-1(2H)-yl)phenyl)pyrimidin-2-yl)amino)cyclohexane-1-carbonyl)-4-hydroxypiperidin-4-yl)ethyl)piperidin-4-yl)phenyl)amino)piperidine-2,6-dione] | < 500
O=C1CCC(Nc2ccc(N3CCN([C@H]4CC[C@H](CNC(=O)[C@H]5CCC[C@@H](Nc6ncc(F)c(-c7cccc(-n8ccccc8=O)c7)n6)C5)CC4)CC3)c(F)c2)C(=O)N1 (relative stereo) [Compound 352, cis-N-((trans-4-(4-(4-((2,6-dioxopiperidin-3-yl)amino)-2-fluorophenyl)piperazin-1-yl)cyclohexyl)methyl)-3-((5-fluoro-4-(3-(2-oxopyridin-1(2H)-yl)phenyl)pyrimidin-2-yl)amino)cyclohexane-1-carboxamide] | < 500
O=C1CCC(Nc2ccc(N3CCC(CN4CCC(NC(=O)[C@H]5CC[C@H](Nc6ncc(F)c(-c7cccc(-n8ccccc8=O)c7)n6)CC5)CC4)CC3)c(F)c2)C(=O)N1 (relative stereo) [Compound 375, trans-N-(1-((1-(4-((2,6-dioxopiperidin-3-yl)amino)-2-fluorophenyl)piperidin-4-yl)methyl)piperidin-4-yl)-4-((5-fluoro-4-(3-(2-oxopyridin-1(2H)-yl)phenyl)pyrimidin-2-yl)amino)cyclohexane-1-carboxamide] | < 500
